Like-named read-outs stand apart in the source and are kept apart here.
Assays:
CLK1 = CLK1 (Homo sapiens, UniProt P49759); experiment: biochemical; design: KINOMEscan active site-directed competition binding assay (DiscoveRx), 456 kinases, per cent of control at 300 nM; settings: read-out: Percent of Control (%)
How it was run: (§1)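 Each compound is tested at 300 nmol/L against a panel of 456 kinases. Interaction is quantified by competition for the kinase active site.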

EGFR(G719C) = EGFR(G719C) (Homo sapiens, UniProt P00533, G719C); experiment: biochemical; design: KINOMEscan active site-directed competition binding assay (DiscoveRx), 456 kinases, per cent of control at 300 nM; settings: read-out: Percent of Control (%)
How it was run: as §1

BUB1 = BUB1 (Homo sapiens, UniProt O43683); experiment: biochemical; design: KINOMEscan active site-directed competition binding assay (DiscoveRx), 456 kinases, per cent of control at 300 nM; settings: read-out: Percent of Control (%)
How it was run: as §1

ZAK = target: T1, ZAK (Homo sapiens, UniProt Q9NYL2); experiment: biochemical; design: KINOMEscan active site-directed competition binding assay (DiscoveRx), 456 kinases, per cent of control at 300 nM; settings: read-out: Percent of Control (%)
T1 construct: gene MAP3K20
How it was run: as §1

MKNK2 = MKNK2 (Homo sapiens, UniProt Q9HBH9); experiment: biochemical; design: KINOMEscan active site-directed competition binding assay (DiscoveRx), 456 kinases, per cent of control at 300 nM; settings: read-out: Percent of Control (%)
How it was run: as §1

AURKC = AURKC (Homo sapiens, UniProt Q9UQB9); experiment: biochemical; design: KINOMEscan active site-directed competition binding assay (DiscoveRx), 456 kinases, per cent of control at 300 nM; settings: read-out: Percent of Control (%)
How it was run: as §1

AAK1 = AAK1 (Homo sapiens, UniProt Q2M2I8); experiment: biochemical; design: KINOMEscan active site-directed competition binding assay (DiscoveRx), 456 kinases, per cent of control at 300 nM; settings: read-out: Percent of Control (%)
How it was run: as §1

[1] = target: EGFR(L747-S752del, P753S) (Homo sapiens, UniProt P00533, DEL747-752/P753S); experiment: biochemical; design: KINOMEscan active site-directed competition binding assay (DiscoveRx), 456 kinases, per cent of control at 300 nM; settings: read-out: Percent of Control (%)
How it was run: as §1

[2] = target: T2, ABL1(H396P)-phosphorylated (Homo sapiens, UniProt P00519, H396P); experiment: biochemical; design: KINOMEscan active site-directed competition binding assay (DiscoveRx), 456 kinases, per cent of control at 300 nM; settings: read-out: Percent of Control (%)
T2 construct: phosphorylated
How it was run: as §1

CDKL5 = CDKL5 (Homo sapiens, UniProt O76039); experiment: biochemical; design: KINOMEscan active site-directed competition binding assay (DiscoveRx), 456 kinases, per cent of control at 300 nM; settings: read-out: Percent of Control (%)
How it was run: as §1

BRAF = BRAF (Homo sapiens, UniProt P15056); experiment: biochemical; design: KINOMEscan active site-directed competition binding assay (DiscoveRx), 456 kinases, per cent of control at 300 nM; settings: read-out: Percent of Control (%)
How it was run: as §1

ABL1-phosphorylated = target: T3, ABL1-phosphorylated (Homo sapiens, UniProt P00519); experiment: biochemical; design: KINOMEscan active site-directed competition binding assay (DiscoveRx), 456 kinases, per cent of control at 300 nM; settings: read-out: Percent of Control (%)
T3 construct: phosphorylated
How it was run: as §1

EIF2AK1 = EIF2AK1 (Homo sapiens, UniProt Q9BQI3); experiment: biochemical; design: KINOMEscan active site-directed competition binding assay (DiscoveRx), 456 kinases, per cent of control at 300 nM; settings: read-out: Percent of Control (%)
How it was run: as §1

LRRK2 = LRRK2 (Homo sapiens, UniProt Q5S007); experiment: biochemical; design: KINOMEscan active site-directed competition binding assay (DiscoveRx), 456 kinases, per cent of control at 300 nM; settings: read-out: Percent of Control (%)
How it was run: as §1

PHKG1 = PHKG1 (Homo sapiens, UniProt Q16816); experiment: biochemical; design: KINOMEscan active site-directed competition binding assay (DiscoveRx), 456 kinases, per cent of control at 300 nM; settings: read-out: Percent of Control (%)
How it was run: as §1

MLK2 = target: T4, MLK2 (Homo sapiens, UniProt Q02779); experiment: biochemical; design: KINOMEscan active site-directed competition binding assay (DiscoveRx), 456 kinases, per cent of control at 300 nM; settings: read-out: Percent of Control (%)
T4 construct: gene MAP3K10
How it was run: as §1

DDR1 = DDR1 (Homo sapiens, UniProt Q08345); experiment: biochemical; design: KINOMEscan active site-directed competition binding assay (DiscoveRx), 456 kinases, per cent of control at 300 nM; settings: read-out: Percent of Control (%)
How it was run: as §1

ERK8 = target: T5, ERK8 (Homo sapiens, UniProt Q8TD08); experiment: biochemical; design: KINOMEscan active site-directed competition binding assay (DiscoveRx), 456 kinases, per cent of control at 300 nM; settings: read-out: Percent of Control (%)
T5 construct: gene MAPK15
How it was run: as §1

PIP5K2B = target: T6, PIP5K2B (Homo sapiens, UniProt P78356); experiment: biochemical; design: KINOMEscan active site-directed competition binding assay (DiscoveRx), 456 kinases, per cent of control at 300 nM; settings: read-out: Percent of Control (%)
T6 construct: gene PIP4K2B
How it was run: as §1

SBK1 = SBK1 (Homo sapiens, UniProt Q52WX2); experiment: biochemical; design: KINOMEscan active site-directed competition binding assay (DiscoveRx), 456 kinases, per cent of control at 300 nM; settings: read-out: Percent of Control (%)
How it was run: as §1

SYK = SYK (Homo sapiens, UniProt P43405); experiment: biochemical; design: KINOMEscan active site-directed competition binding assay (DiscoveRx), 456 kinases, per cent of control at 300 nM; settings: read-out: Percent of Control (%)
How it was run: as §1

CDK8 = CDK8 (Homo sapiens, UniProt P49336); experiment: TR-FRET ligand displacement assay (Kinase Tracer […], Tb-anti-GST); also KINOMEscan […] inhibition at […]; format: binding; design: GST-CDK8; with Cyclin C

T4 sequence (Q02779 whole entry): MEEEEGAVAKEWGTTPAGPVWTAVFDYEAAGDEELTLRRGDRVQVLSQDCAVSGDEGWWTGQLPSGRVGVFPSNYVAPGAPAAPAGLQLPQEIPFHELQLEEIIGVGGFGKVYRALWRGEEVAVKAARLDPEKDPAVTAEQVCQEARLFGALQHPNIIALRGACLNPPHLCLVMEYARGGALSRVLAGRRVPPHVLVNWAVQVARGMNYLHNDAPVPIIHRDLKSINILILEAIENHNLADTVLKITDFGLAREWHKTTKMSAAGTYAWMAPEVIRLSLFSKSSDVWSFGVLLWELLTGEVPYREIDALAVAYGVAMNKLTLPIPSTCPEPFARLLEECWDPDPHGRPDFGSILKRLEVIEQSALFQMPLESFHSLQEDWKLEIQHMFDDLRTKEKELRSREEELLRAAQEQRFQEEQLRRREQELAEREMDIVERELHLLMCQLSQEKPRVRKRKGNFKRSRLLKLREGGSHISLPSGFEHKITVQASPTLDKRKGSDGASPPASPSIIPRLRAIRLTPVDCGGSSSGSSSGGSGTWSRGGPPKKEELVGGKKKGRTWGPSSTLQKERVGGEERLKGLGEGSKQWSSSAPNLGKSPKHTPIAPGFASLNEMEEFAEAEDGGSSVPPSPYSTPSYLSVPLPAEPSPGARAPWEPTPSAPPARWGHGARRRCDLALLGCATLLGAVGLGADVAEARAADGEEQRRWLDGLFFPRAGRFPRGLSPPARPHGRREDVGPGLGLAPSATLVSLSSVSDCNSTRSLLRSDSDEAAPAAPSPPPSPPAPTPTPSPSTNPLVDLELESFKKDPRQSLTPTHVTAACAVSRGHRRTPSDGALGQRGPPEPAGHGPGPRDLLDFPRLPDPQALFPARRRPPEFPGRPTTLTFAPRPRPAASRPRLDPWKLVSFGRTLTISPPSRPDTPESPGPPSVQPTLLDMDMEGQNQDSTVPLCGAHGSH
Sequence of EGFR(L747-S752del, P753S) (P00533 with tags, fused parts or gaps DEL747-752/P753S): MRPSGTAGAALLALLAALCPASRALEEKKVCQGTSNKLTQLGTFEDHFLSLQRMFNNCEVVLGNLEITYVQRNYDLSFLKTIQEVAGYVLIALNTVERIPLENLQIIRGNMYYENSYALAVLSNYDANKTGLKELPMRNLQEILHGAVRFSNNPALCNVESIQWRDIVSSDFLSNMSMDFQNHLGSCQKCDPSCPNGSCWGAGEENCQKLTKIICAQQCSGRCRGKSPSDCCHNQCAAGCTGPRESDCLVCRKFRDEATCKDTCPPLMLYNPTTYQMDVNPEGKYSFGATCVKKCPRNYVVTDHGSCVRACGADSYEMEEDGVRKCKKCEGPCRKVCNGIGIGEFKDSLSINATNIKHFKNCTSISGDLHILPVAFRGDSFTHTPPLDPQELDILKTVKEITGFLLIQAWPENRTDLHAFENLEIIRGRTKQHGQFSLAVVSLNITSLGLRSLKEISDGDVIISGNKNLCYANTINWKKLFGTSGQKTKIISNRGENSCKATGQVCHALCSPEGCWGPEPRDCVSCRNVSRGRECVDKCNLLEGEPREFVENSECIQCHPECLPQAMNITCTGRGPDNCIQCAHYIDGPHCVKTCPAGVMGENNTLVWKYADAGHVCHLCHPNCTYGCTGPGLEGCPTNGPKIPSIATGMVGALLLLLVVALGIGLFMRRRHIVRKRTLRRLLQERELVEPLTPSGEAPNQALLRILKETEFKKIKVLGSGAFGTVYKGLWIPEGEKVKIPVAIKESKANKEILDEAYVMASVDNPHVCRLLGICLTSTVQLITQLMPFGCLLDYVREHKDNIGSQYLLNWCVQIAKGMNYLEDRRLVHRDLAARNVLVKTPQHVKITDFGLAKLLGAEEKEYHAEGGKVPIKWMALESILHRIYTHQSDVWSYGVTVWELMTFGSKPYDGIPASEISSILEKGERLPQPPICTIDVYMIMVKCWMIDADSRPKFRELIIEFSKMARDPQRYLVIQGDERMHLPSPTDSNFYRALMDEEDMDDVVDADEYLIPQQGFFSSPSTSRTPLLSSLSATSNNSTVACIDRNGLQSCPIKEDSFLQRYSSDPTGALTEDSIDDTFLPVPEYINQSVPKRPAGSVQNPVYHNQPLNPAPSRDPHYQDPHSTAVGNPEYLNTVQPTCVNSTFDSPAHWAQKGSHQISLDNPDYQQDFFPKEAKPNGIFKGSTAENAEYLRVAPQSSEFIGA
Sequence of EIF2AK1 (Q9BQI3 whole entry): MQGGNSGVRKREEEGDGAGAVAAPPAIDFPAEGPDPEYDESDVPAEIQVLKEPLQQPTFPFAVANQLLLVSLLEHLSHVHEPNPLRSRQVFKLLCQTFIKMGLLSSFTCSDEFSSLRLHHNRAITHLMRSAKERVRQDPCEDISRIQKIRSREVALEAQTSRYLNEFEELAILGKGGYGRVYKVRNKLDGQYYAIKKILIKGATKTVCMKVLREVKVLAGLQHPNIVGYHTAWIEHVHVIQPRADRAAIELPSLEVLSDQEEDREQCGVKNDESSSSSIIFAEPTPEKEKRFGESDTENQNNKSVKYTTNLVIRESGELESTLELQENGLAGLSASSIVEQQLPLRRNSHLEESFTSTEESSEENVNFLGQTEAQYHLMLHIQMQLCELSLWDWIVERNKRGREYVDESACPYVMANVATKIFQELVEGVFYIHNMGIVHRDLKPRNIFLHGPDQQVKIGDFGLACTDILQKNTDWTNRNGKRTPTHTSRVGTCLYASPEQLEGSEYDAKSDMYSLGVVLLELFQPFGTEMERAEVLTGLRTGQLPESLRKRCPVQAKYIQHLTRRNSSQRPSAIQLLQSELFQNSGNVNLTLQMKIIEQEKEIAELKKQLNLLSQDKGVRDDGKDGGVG
Sequence of AAK1 (Q2M2I8 whole entry): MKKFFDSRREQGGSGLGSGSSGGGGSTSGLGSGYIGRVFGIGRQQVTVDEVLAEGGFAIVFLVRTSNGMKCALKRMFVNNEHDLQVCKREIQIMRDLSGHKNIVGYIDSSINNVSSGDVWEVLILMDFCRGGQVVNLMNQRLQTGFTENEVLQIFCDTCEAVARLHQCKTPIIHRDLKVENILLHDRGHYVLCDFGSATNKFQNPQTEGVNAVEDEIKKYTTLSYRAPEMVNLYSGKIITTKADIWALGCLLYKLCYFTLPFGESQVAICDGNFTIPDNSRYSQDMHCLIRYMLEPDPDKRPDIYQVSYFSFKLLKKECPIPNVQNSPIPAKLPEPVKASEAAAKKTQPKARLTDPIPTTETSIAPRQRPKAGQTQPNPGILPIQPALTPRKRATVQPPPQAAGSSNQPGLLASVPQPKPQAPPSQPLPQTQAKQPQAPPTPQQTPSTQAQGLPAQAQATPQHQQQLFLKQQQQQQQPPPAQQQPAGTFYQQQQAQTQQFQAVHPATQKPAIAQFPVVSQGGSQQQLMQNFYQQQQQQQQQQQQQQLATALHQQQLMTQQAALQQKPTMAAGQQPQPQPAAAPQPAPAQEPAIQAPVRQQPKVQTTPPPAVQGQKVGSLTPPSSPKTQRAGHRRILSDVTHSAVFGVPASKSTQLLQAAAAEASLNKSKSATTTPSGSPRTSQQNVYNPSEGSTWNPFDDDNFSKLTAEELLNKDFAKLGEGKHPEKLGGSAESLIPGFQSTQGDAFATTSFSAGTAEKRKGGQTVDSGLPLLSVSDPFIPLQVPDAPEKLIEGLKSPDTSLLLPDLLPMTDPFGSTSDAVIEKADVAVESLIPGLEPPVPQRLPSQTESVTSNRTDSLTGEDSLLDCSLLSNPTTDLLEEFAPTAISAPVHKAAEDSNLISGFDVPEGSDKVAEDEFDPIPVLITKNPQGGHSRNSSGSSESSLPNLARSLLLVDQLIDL
Sequence of PHKG1 (Q16816 whole entry): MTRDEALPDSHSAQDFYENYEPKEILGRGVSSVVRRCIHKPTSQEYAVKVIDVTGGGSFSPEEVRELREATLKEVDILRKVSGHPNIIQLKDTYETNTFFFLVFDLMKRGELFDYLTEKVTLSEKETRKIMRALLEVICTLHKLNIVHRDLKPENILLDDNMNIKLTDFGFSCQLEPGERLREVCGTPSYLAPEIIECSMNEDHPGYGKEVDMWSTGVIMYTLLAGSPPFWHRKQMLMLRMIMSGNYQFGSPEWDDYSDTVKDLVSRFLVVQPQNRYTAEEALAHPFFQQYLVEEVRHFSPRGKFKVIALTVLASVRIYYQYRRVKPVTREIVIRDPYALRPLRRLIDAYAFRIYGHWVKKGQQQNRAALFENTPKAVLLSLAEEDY
Sequence of MKNK2 (Q9HBH9 whole entry): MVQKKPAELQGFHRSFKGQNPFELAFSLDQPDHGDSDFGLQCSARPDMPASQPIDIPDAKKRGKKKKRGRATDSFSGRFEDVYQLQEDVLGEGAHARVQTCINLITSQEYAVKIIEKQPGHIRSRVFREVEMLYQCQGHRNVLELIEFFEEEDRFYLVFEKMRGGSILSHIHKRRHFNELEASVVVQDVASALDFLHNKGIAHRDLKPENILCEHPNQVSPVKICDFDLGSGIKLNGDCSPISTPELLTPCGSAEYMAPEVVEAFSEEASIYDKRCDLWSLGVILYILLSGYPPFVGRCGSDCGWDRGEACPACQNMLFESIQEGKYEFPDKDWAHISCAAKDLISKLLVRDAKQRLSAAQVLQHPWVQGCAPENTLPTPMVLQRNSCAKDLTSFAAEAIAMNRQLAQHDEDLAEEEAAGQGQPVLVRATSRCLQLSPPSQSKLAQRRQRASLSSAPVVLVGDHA
Sequence of AURKC (Q9UQB9 whole entry): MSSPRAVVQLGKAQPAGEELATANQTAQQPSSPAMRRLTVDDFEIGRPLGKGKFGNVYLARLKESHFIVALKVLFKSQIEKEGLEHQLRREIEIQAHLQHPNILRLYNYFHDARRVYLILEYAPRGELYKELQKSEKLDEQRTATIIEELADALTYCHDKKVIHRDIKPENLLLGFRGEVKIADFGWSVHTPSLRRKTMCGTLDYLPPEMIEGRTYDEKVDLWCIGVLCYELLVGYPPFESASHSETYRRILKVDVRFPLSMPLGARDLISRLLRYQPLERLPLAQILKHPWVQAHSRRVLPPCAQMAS

O=C(/C=C/c1cnccc1-c1ccc(F)cc1)Nc1ccc(CCc2nnco2)cc1 [T-418, (2E)-3-(4-(4-fluorophenyl)pyridin-3-yl)-N-(4-(2-(1,3,4-oxadiazol-2-yl)ethyl)phenyl)acrylamide]
remaining binding at 0.3 µM (CLK1; sheet T-418): 100%
remaining binding at 0.3 µM (EGFR(G719C); sheet T-418): 72%
remaining binding at 0.3 µM (BUB1; sheet T-418): 100%
remaining binding at 0.3 µM (ZAK; sheet T-418): 73%
remaining binding at 0.3 µM (MKNK2; sheet T-418): 97%
remaining binding at 0.3 µM (AURKC; sheet T-418): 100%
remaining binding at 0.3 µM (AAK1; sheet T-418): 83%
remaining binding at 0.3 µM ([1]; sheet T-418): 87%
remaining binding at 0.3 µM ([2]; sheet T-418): 96%
remaining binding at 0.3 µM (CDKL5; sheet T-418): 88%
remaining binding at 0.3 µM (BRAF; sheet T-418): 100%
remaining binding at 0.3 µM (ABL1-phosphorylated; sheet T-418): 89%
remaining binding at 0.3 µM (EIF2AK1; sheet T-418): 100%
remaining binding at 0.3 µM (LRRK2; sheet T-418): 94%
remaining binding at 0.3 µM (PHKG1; sheet T-418): 90%
remaining binding at 0.3 µM (MLK2; sheet T-418): 71%
remaining binding at 0.3 µM (DDR1; sheet T-418): 100%
remaining binding at 0.3 µM (ERK8; sheet T-418): 94%
remaining binding at 0.3 µM (PIP5K2B; sheet T-418): 94%
remaining binding at 0.3 µM (SBK1; sheet T-418): 73%
remaining binding at 0.3 µM (SYK; sheet T-418): 100%

Cc1ncccc1Oc1sc(C(N)=O)c2c1-c1c(cnn1C)CC2 [T-474, 1-methyl-8-((2-methylpyridin-3-yl)oxy)-4,5-dihydro-1H-thieno[3,4-g]indazole-6-carboxamide]
IC50 (CDK8): 1.6 nM
remaining binding at 0.3 µM (CLK1): 32%
remaining binding at 0.3 µM (EGFR(G719C)): 99%
remaining binding at 0.3 µM (BUB1): 100%
remaining binding at 0.3 µM (ZAK): 74%
remaining binding at 0.3 µM (MKNK2): 86%
remaining binding at 0.3 µM (AURKC): 100%
remaining binding at 0.3 µM (AAK1): 93%
remaining binding at 0.3 µM [1]: 61%
remaining binding at 0.3 µM [2]: 100%
remaining binding at 0.3 µM (CDKL5): 100%
remaining binding at 0.3 µM (BRAF): 100%
remaining binding at 0.3 µM (ABL1-phosphorylated): 100%
remaining binding at 0.3 µM (EIF2AK1): 100%
remaining binding at 0.3 µM (LRRK2): 95%
remaining binding at 0.3 µM (PHKG1): 100%
remaining binding at 0.3 µM (MLK2): 97%
remaining binding at 0.3 µM (DDR1): 100%
remaining binding at 0.3 µM (ERK8): 88%
remaining binding at 0.3 µM (PIP5K2B): 100%
remaining binding at 0.3 µM (SBK1): 91%
remaining binding at 0.3 µM (SYK): 100%

From paper PMC5862592, “CDK8/19 inhibition induces premature G1/S transition and ATR-dependent cell death in prostate cancer cells” (Oncotarget, 2018)
